# Key:
# Test in all cases: relative viability (nuclei count vs DMSO), 5 days (fraction); higher = more cells survive
# ABC-1 = test system: ABC-1
# In short: (§1)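 Lung cancer cell lines in 1536-well plates were dosed by pin tool the day after seeding, either with one drug alone or with a fixed anchor-drug dose plus five library-drug doses (not always all listed) in √10 steps. After 5 days, cells were fixed and their nuclei stained in one step (final 0.05% Triton X-100, 1% formaldehyde, 1 ug/ml Hoechst), then counted on 4× images. Relative viability is the nuclei count in treated wells divided by that in vehicle wells. Values are medians of duplicate plates.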
# COR-L23 = test system: COR-L23
# In short: as §1
# EPLC-272H = test system: EPLC-272H
# In short: as §1
# HARA = test system: HARA
# In short: as §1
# HCC-15 = test system: HCC-15
# In short: as §1
# HCC-78 = test system: HCC-78
# In short: as §1
# LC-2-ad = test system: LC-2-ad
# In short: as §1
# LU99A = test system: LU99A
# In short: as §1
# NCI-H1355 = test system: NCI-H1355
# In short: as §1
# NCI-H1651 = test system: NCI-H1651
# In short: as §1
# NCI-H1915 = test system: NCI-H1915
# In short: as §1
# NCI-H1993 = test system: NCI-H1993
# In short: as §1
# NCI-H2023 = test system: NCI-H2023
# In short: as §1
# NCI-H2085 = test system: NCI-H2085
# In short: as §1
# NCI-H2126 = test system: NCI-H2126
# In short: as §1
# NCI-H2342 = test system: NCI-H2342
# In short: as §1
# NCI-H2347 = test system: NCI-H2347
# In short: as §1
# NCI-H358 = test system: NCI-H358
# In short: as §1
# NCI-H650 = test system: NCI-H650
# In short: as §1
# NCI-H838 = test system: NCI-H838
# In short: as §1
# PC-14 = test system: PC-14
# In short: as §1
# SW 1573 = test system: SW 1573
# In short: as §1
# UMC-11 = test system: UMC-11
# In short: as §1
smiles,measurement,setting,value
O=C(O)c1ccc(-c2c[nH]c3ncc(-c4ccccc4)cc23)cc1C1CCCC1 + Cc1nc(Nc2ncc(C(=O)Nc3c(C)cccc3Cl)s2)cc(N2CCN(CCO)CC2)n1 [Dasatinib] (partner 0.075 µM),relative viability,ABC-1; first compound 0.04 µM,0.588
same,relative viability,ABC-1; first compound 0.1265 µM,0.629
same,relative viability,ABC-1; first compound 0.4 µM,0.551
same,relative viability,ABC-1; first compound 1.265 µM,0.604
same,relative viability,COR-L23; first compound 0.04 µM,0.485
same,relative viability,COR-L23; first compound 0.1265 µM,0.578
same,relative viability,COR-L23; first compound 0.4 µM,0.469
same,relative viability,COR-L23; first compound 1.265 µM,0.3
same,relative viability,EPLC-272H; first compound 0.04 µM,0.331
same,relative viability,EPLC-272H; first compound 0.1265 µM,0.416
same,relative viability,EPLC-272H; first compound 0.4 µM,0.328
same,relative viability,EPLC-272H; first compound 1.265 µM,0.337
same,relative viability,HARA; first compound 0.04 µM,0.237
same,relative viability,HARA; first compound 0.1265 µM,0.294
same,relative viability,HARA; first compound 0.4 µM,0.308
same,relative viability,HARA; first compound 1.265 µM,0.3
same,relative viability,HCC-15; first compound 0.04 µM,0.648
same,relative viability,HCC-15; first compound 0.1265 µM,0.698
same,relative viability,HCC-15; first compound 0.4 µM,0.591
same,relative viability,HCC-15; first compound 1.265 µM,0.38
same,relative viability,HCC-78; first compound 0.1265 µM,0.516
same,relative viability,HCC-78; first compound 0.4 µM,0.485
same,relative viability,HCC-78; first compound 1.265 µM,0.406
same,relative viability,LC-2-ad; first compound 0.04 µM,0.505
same,relative viability,LC-2-ad; first compound 0.1265 µM,0.813
same,relative viability,LC-2-ad; first compound 0.4 µM,0.489
same,relative viability,LC-2-ad; first compound 1.265 µM,0.463
same,relative viability,LU99A; first compound 0.04 µM,0.599
same,relative viability,LU99A; first compound 0.1265 µM,0.748
same,relative viability,LU99A; first compound 0.4 µM,0.626
same,relative viability,LU99A; first compound 1.265 µM,0.448
same,relative viability,NCI-H1355; first compound 0.04 µM,0.754
same,relative viability,NCI-H1355; first compound 0.1265 µM,0.841
same,relative viability,NCI-H1355; first compound 0.4 µM,0.664
same,relative viability,NCI-H1355; first compound 1.265 µM,0.567
same,relative viability,NCI-H1651; first compound 0.04 µM,0.333
same,relative viability,NCI-H1651; first compound 0.1265 µM,0.5
same,relative viability,NCI-H1651; first compound 0.4 µM,0.384
same,relative viability,NCI-H1651; first compound 1.265 µM,0.3
same,relative viability,NCI-H1915; first compound 0.04 µM,0.297
same,relative viability,NCI-H1915; first compound 0.1265 µM,0.331
same,relative viability,NCI-H1915; first compound 0.4 µM,0.277
same,relative viability,NCI-H1915; first compound 1.265 µM,0.271
same,relative viability,NCI-H1993; first compound 0.04 µM,0.592
same,relative viability,NCI-H1993; first compound 0.1265 µM,0.568
same,relative viability,NCI-H1993; first compound 0.4 µM,0.601
same,relative viability,NCI-H1993; first compound 1.265 µM,0.572
same,relative viability,NCI-H2023; first compound 0.04 µM,0.575
same,relative viability,NCI-H2023; first compound 0.1265 µM,0.738
same,relative viability,NCI-H2023; first compound 0.4 µM,0.603
same,relative viability,NCI-H2023; first compound 1.265 µM,0.515
same,relative viability,NCI-H2085; first compound 0.04 µM,0.259
same,relative viability,NCI-H2085; first compound 0.1265 µM,0.268
same,relative viability,NCI-H2085; first compound 0.4 µM,0.307
same,relative viability,NCI-H2085; first compound 1.265 µM,0.247
same,relative viability,NCI-H2126; first compound 0.04 µM,0.641
same,relative viability,NCI-H2126; first compound 0.1265 µM,0.634
same,relative viability,NCI-H2126; first compound 0.4 µM,0.642
same,relative viability,NCI-H2126; first compound 1.265 µM,0.488
same,relative viability,NCI-H2342; first compound 0.04 µM,0.34
same,relative viability,NCI-H2342; first compound 0.1265 µM,0.377
same,relative viability,NCI-H2342; first compound 0.4 µM,0.325
same,relative viability,NCI-H2342; first compound 1.265 µM,0.289
same,relative viability,NCI-H2347; first compound 0.04 µM,0.275
same,relative viability,NCI-H2347; first compound 0.1265 µM,0.799
same,relative viability,NCI-H2347; first compound 0.4 µM,0.298
same,relative viability,NCI-H2347; first compound 1.265 µM,0.299
same,relative viability,NCI-H358; first compound 0.04 µM,0.143
same,relative viability,NCI-H358; first compound 0.1265 µM,0.209
same,relative viability,NCI-H358; first compound 0.4 µM,0.209
same,relative viability,NCI-H358; first compound 1.265 µM,0.152
same,relative viability,NCI-H650; first compound 0.04 µM,0.43
same,relative viability,NCI-H650; first compound 0.1265 µM,0.502
same,relative viability,NCI-H650; first compound 0.4 µM,0.405
same,relative viability,NCI-H650; first compound 1.265 µM,0.353
same,relative viability,NCI-H838; first compound 0.04 µM,0.273
same,relative viability,NCI-H838; first compound 0.1265 µM,0.299
same,relative viability,NCI-H838; first compound 0.4 µM,0.31
same,relative viability,NCI-H838; first compound 1.265 µM,0.293
same,relative viability,PC-14; first compound 0.04 µM,0.245
same,relative viability,PC-14; first compound 0.1265 µM,0.258
same,relative viability,PC-14; first compound 0.4 µM,0.281
same,relative viability,PC-14; first compound 1.265 µM,0.286
same,relative viability,SW 1573; first compound 0.04 µM,0.398
same,relative viability,SW 1573; first compound 0.1265 µM,0.542
same,relative viability,SW 1573; first compound 0.4 µM,0.455
same,relative viability,SW 1573; first compound 1.265 µM,0.392
same,relative viability,UMC-11; first compound 0.04 µM,0.505
same,relative viability,UMC-11; first compound 0.1265 µM,0.496
same,relative viability,UMC-11; first compound 0.4 µM,0.501
same,relative viability,UMC-11; first compound 1.265 µM,0.433

# — the supplement of paper PMC10307832
